pEC50, pIC50: −log10 of the molar value.
How the values were obtained:
[1] = Cmax in rat at 5 mg/kg, po; assay type: ADME, organism-based; design: dose 5 mg/kg, route oral; conditions: in vivo
[2] = target: T1, Cytochrome P450 2C8 (Homo sapiens, UniProt P10632); assay: Inhibition of CYP2C8 (unknown origin) using […] as substrate; assay type: ADME
T1 sequence (P10632 whole entry): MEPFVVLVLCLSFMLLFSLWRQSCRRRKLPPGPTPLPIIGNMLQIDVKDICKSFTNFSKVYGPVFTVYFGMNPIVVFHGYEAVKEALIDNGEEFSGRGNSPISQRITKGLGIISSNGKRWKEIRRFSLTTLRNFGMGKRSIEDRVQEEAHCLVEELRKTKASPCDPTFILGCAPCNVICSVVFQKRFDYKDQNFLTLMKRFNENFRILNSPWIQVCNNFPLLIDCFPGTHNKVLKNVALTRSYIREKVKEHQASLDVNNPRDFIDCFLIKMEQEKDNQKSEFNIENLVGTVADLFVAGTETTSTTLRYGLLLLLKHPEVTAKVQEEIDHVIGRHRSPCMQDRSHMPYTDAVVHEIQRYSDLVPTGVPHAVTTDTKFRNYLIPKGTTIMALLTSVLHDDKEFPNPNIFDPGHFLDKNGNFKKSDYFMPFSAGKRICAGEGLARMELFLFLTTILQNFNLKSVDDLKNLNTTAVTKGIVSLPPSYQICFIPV

[3] = target: T2, Glucocorticoid receptor (Canis lupus familiaris, UniProt A0A8C0QLS2); assay: Antagonist activity at GR in dog PBMC assessed as reduction in dexamethasone-induced FKBP5 gene expression incubated for 6 hrs by RT-qPCR method; assay type: cell-based
T2 sequence (A0A8C0QLS2 whole entry): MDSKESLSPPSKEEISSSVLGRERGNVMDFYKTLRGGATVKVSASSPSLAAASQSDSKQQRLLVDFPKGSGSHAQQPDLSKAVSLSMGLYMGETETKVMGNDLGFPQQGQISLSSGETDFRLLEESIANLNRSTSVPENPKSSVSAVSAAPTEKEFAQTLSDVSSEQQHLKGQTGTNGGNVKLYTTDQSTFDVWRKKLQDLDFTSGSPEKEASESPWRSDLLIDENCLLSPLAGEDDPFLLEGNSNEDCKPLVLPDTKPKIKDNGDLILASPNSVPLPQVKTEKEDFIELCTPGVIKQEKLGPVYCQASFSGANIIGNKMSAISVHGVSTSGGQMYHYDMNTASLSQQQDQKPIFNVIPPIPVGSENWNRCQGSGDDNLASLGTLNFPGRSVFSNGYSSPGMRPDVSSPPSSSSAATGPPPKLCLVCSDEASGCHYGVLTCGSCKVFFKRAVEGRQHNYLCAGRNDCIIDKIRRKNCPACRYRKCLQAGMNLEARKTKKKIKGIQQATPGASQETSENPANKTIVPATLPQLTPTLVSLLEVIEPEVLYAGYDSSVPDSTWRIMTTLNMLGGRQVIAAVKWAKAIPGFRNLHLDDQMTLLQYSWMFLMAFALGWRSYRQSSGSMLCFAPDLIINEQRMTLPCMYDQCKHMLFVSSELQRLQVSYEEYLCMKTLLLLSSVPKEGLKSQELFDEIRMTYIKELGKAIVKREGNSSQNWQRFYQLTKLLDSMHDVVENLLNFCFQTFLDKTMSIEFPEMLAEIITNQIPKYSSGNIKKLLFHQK

[4] = target: Cytochrome P450 2C9 (Homo sapiens, UniProt P11712); assay: Inhibition of CYP2C9 (unknown origin) using […] as substrate; assay type: ADME
Cytochrome P450 2C9, sequence (P11712 whole entry): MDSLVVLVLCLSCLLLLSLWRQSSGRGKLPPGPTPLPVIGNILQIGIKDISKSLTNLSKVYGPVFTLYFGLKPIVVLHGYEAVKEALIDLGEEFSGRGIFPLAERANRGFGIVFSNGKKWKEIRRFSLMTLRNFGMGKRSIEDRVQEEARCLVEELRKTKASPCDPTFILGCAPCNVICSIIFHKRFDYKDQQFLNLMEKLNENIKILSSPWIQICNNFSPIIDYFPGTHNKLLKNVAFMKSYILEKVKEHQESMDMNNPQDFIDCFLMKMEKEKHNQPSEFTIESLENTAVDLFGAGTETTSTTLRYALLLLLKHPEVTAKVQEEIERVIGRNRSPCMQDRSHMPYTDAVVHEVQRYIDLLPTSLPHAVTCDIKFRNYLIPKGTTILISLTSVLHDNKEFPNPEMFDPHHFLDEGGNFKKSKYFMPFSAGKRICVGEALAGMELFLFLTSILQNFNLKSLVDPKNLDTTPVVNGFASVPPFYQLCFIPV

[5] = Half life in rat at 0.5 mg/kg, iv; assay type: ADME, organism-based; conditions: in vivo
[6] = Antagonist activity at GR in monkey PBMC assessed as reduction in dexamethasone-induced FKBP5 gene expression incubated for 6 hrs by RT-qPCR method; assay type: cell-based; conditions: Macaca mulatta
[7] = target: T3, glucocorticoid receptor (GR) (Homo sapiens, UniProt P04150); assay: Agonist activity at human GR expressed in CHO-K1 cells incubated for 20 hrs by luciferase reporter gene assay relative to dexamethasone; assay type: cell-based; conditions: CHO-K1 cells expressing human GR
T3 sequence (P04150 whole entry): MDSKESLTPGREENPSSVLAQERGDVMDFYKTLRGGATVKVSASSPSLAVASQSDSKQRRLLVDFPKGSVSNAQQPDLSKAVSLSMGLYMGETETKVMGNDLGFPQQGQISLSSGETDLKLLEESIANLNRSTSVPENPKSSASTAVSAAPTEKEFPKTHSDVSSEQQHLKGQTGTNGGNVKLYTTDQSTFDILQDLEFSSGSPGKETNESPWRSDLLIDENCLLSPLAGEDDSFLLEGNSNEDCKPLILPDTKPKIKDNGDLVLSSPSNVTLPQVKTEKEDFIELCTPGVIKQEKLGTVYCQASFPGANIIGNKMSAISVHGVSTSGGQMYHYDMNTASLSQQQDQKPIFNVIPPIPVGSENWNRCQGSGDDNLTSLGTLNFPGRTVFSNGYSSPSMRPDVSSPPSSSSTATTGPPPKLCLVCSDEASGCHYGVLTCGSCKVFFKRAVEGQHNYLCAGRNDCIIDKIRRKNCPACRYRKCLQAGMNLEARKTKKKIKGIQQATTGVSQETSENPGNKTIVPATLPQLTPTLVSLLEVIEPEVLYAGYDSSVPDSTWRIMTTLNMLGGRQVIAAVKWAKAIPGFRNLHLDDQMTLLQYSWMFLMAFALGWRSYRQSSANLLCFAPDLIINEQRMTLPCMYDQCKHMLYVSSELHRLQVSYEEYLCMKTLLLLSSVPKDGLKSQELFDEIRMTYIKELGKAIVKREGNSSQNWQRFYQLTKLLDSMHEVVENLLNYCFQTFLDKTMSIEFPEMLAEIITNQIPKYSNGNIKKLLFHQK

[8] = target: T4, Glucocorticoid receptor (Sus scrofa, UniProt Q9N1U3); assay: Antagonist activity at GR in mini pig PBMC assessed as reduction in dexamethasone-induced GILZ gene expression incubated for 24 hrs by RT-qPCR method; assay type: cell-based
T4 sequence (Q9N1U3 whole entry): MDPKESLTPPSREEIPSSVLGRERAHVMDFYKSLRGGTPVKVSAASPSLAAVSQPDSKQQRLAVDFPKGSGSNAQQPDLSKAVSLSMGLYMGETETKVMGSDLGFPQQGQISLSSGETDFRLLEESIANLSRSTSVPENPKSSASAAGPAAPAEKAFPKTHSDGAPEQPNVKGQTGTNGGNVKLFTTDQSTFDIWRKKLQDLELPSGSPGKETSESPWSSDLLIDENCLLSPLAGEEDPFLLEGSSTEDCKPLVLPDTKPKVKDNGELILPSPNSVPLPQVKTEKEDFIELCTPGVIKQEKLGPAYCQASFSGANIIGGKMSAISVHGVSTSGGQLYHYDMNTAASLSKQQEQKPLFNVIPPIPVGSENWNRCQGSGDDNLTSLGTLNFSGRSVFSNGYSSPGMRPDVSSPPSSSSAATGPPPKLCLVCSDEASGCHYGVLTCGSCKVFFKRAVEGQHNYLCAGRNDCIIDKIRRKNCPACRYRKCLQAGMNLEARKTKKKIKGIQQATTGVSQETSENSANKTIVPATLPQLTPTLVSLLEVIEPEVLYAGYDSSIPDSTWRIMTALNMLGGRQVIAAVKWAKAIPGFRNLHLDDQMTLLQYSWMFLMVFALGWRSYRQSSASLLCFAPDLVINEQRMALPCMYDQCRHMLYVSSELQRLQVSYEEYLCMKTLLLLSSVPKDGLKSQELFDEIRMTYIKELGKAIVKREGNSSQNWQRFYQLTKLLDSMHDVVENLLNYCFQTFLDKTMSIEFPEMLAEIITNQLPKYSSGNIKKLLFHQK

[9] = Clearance in rat at 0.5 mg/kg, iv; assay type: ADME, organism-based; conditions: in vivo
[10] = Antagonist activity at GR in monkey PBMC assessed as reduction in dexamethasone-induced GILZ gene expression incubated for 6 hrs by RT-qPCR method; assay type: cell-based; conditions: Macaca mulatta
[11] = Volume of distribution at steady state in rat at 0.5 mg/kg, iv; assay type: ADME, organism-based; conditions: in vivo, read-out: Vdss
[12] = AUC in rat at 5 mg/kg, po; assay type: ADME, organism-based; conditions: in vivo
[13] = target: T4, Glucocorticoid receptor; assay: Antagonist activity at GR in mini pig PBMC assessed as reduction in dexamethasone-induced FKBP5 gene expression incubated for 24 hrs by RT-qPCR method; assay type: cell-based
[14] = Oral bioavailability in rat at 5 mg/kg; assay type: ADME, organism-based; conditions: in vivo
[15] = target: T2, Glucocorticoid receptor; assay: Antagonist activity at GR in dog PBMC assessed as reduction in dexamethasone-induced GILZ gene expression incubated for 6 hrs by RT-qPCR method; assay type: cell-based
[16] = target: T5, Glucocorticoid receptor (Homo sapiens, UniProt P04150); assay: Antagonist activity at human GR expressed in CHO-K1 cells assessed as reduction in dexamethasone-induced response incubated for 20 hrs by luciferase reporter gene assay; assay type: cell-based
T5 sequence (P04150 whole entry): T3 sequence (P04150 whole entry)

[17] = target: T6, androgen receptor (AR) (Homo sapiens, UniProt P10275); assay: Agonist activity at AR (unknown origin) expressed in human LNCaP cells incubated for 20 hrs by luciferase reporter gene assay relative to mifepristone; assay type: cell-based; conditions: human LNCaP cells expressing AR
T6 sequence (P10275 whole entry): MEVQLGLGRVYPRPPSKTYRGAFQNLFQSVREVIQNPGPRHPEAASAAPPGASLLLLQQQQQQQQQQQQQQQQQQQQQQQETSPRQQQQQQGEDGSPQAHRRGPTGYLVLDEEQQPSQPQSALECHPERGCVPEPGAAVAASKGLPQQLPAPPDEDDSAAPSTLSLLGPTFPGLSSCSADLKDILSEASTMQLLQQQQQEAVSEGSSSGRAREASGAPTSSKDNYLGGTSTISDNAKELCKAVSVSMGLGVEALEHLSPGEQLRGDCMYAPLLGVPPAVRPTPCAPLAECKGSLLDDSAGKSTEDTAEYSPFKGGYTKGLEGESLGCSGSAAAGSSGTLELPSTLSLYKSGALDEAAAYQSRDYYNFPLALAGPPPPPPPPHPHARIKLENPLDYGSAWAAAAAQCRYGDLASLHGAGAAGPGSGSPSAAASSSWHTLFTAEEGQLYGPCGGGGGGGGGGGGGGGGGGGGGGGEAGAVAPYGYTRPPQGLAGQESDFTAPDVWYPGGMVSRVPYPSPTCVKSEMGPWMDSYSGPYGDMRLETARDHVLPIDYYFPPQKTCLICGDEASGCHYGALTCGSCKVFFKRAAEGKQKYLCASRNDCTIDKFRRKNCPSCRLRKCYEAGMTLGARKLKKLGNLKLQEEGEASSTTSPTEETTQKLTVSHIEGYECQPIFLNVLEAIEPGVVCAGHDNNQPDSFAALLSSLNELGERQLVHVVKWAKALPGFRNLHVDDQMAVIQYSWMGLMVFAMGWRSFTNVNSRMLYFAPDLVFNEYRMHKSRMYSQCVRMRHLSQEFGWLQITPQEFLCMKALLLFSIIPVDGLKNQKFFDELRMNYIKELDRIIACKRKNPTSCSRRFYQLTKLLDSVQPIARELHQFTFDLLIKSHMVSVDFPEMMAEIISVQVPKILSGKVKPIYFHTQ

[18] = target: T5, Glucocorticoid receptor; assay: Agonist activity at human GR expressed in CHO-K1 cells incubated for 20 hrs by luciferase reporter gene assay; assay type: cell-based
[19] = target: T7, Androgen receptor (Homo sapiens, UniProt P10275); assay: Agonist activity at AR (unknown origin) expressed in human LNCaP cells incubated for 20 hrs by luciferase reporter gene assay; assay type: cell-based
T7 sequence (P10275 whole entry): T6 sequence (P10275 whole entry)

[20] = target: Cytochrome P450 3A4 (Homo sapiens, UniProt P08684); assay: Inhibition of CYP3A4 (unknown origin) using midazolam as substrate; assay type: ADME
Cytochrome P450 3A4, sequence (P08684 whole entry): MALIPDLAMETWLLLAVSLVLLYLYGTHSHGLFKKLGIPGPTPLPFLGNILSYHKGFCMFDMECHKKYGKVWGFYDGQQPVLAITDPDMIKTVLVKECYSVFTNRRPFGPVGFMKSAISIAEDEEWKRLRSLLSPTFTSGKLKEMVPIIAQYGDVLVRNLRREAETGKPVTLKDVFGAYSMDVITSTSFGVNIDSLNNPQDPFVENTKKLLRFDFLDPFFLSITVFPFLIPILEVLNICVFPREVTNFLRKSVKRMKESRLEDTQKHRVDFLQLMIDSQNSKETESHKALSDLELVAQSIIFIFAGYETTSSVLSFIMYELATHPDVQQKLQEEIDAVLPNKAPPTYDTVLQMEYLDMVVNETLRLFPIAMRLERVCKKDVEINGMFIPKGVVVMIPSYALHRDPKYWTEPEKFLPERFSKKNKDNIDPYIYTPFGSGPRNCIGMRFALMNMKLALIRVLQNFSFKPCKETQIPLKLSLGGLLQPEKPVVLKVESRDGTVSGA

| SMILES | Cmax [1] [ng/mL] | pIC50 [2] | pIC50 [3] | pIC50 [4] | half-life [5] [h] | pIC50 [6] | Emax at 20 h [7] [%] | pIC50 [8] | clearance [9] [mL/min/kg] | pIC50 [10] | Vd [11] [L/kg] | AUC [12] [ng·h/mL] | pIC50 [13] | bioavailability [14] [%] | pIC50 [15] | pIC50 [16] | Emax at 20 h [17] [%] | pEC50 [18] | pEC50 [19] | pIC50 [20] |
| --- | --- | --- | --- | --- | --- | --- | --- | --- | --- | --- | --- | --- | --- | --- | --- | --- | --- | --- | --- | --- |
| CC#C[C@]1(O)CC[C@H]2[C@@H]3CCC4=CC(=O)CCC4=C3[C@@H](c3ccc(N(C)C)cc3)C[C@@]21C [MIFEPRISTONE] | 24 | 5.82 | 7.69 | 5.31 | 1.6 | 7.66 | 3.1 | 7.59 to 7.96 | 61.7 | 7.86 | 4.1 | 85 | 7.71 | 6.4 | 7.49 |  |  |  |  |  |
| CC(C)N(C)c1ccc([C@H]2C[C@@]3(C)[C@@H](CC[C@@]3(O)C#CC(C)(C)C)[C@@H]3CCC4=CC(=O)CCC4=C32)cc1 | 59 |  |  |  | 1.5 |  | 1.7 |  | 66.7 |  | 4.7 | 290 |  | 23 |  | 7.37 | 8.2 | < 5.60 | < 5.60 |  |
| CN(C)c1ccc([C@H]2C[C@@]3(C)[C@@H](CC[C@@]3(O)C#CC(C)(C)C)[C@@H]3CCC4=CC(=O)CCC4=C32)cc1 | 72 | < 5.00 |  | < 5.00 | 1.9 |  | 1.4 |  | 66.7 |  | 4.9 | 471 |  | 37 |  | 7.84 | 13.4 | < 5.60 | < 5.60 | 5.54 |
